Several values for one entry are separate records, joined by “and”; a condition that tells them apart may be missing. Equal entries are not always repeated. Activity calls are given as the source filed them. No cut-off for these calls is given here. Some results are limits rather than exact numbers.

For assay [1], the target named is T1, Integrin alpha-V/beta-3 (Homo sapiens, UniProt P05106+P06756). In words: Displacement of vitronectin from alphaV-beta3 integrin in ELISA (Not active). It is filed as protein-complex assay.
In assay [2] the target is T1, Integrin alpha-V/beta-3. Nature of the assay: Affinity against alpha V-beta3 integrin via competitive ELISA using vitronectin as natural ligand. The assay is classed as protein-complex assay.
The test system of a further assay is Caco-2. In words: Apparent permeability constant (Papp) was evaluated for Caco-2 model permeation. The assay is classed as functional, cell-based. The note with it: Homo sapiens. A general note: Caco-2 monolayers are a common model of the intestinal barrier.
The species named for the next assay is Homo sapiens. In words: Evaluated for primary human smooth muscle cell migration. The assay is classed as functional.
The target of assay [3] is Integrin alpha-5/beta-1 (Homo sapiens) (UniProt P05556+P08648). In words: Cell adhesion via alpha5-beta1 integrin to fibronectin at 10e-5 M (Not active). The assay is classed as protein-complex assay.
The target in assay [4] is Integrin alpha-IIb/beta-3 (Homo sapiens, UniProt P05106+P08514). In words: Displacement of alphaIIb-beta3 integrin from fibrinogen by ELISA. The assay is classed as protein-complex assay. Background: An ELISA detects its analyte on a solid surface through an enzyme-linked reagent.
For assay [5], the target named is Integrin alpha-4/beta-1 (Homo sapiens) (UniProt P05556+P13612). Nature of the assay: Cell adhesion of alpha4-beta1 integrin to fibronectin at 10e-5 M (Not active). The assay is classed as protein-complex assay.
In assay [6] the target is T1, Integrin alpha-V/beta-3. Nature of the assay: Adhesion of recombinant alphaV-beta3 integrin expressed in CHO-K1 to osteopontin (OPN). The assay is classed as cell-based.
For assay [7], the target named is T1, Integrin alpha-V/beta-3. Nature of the assay: Cell adhesion of alphaV-beta3 integrin expressed in CHO-K1 cell to osteopontin (OPN). It is filed as cell-based.

As to `O=C(O)CC1c2ccccc2C(=O)N(CC(=O)NCc2ccc(NC(=O)CCc3ccccc3)cc2)c2ccccc21` (centres undefined), the half-inhibitory concentration (IC50) entry at Integrin alpha-V/beta-3 [1] is recorded as “Not Active”. With `O=C(O)CC1c2ccccc2C(=O)N(CC(=O)NCc2ccc(-c3nc4cc(Cl)ccc4[nH]3)cc2)c2ccccc21` (centres undefined), the IC50 at Integrin alpha-V/beta-3 [2] turned out to be 620 nM. `O=C(O)CC1c2ccccc2C(=O)N(CC(=O)NCCCNc2ccccn2)c2ccccc21` (centres undefined) gave an IC50 on Integrin alpha-V/beta-3 [2] of 1000 nM. `O=C(O)CC1c2ccccc2C(=O)N(CC(=O)NC[C@H]2CC[C@H](Nc3nc4ccccc4[nH]3)CC2)c2ccccc21` (some centres undefined): in the assay with Caco-2, the Papp amounted to 2.7 ×10⁻⁶ cm/s. For the same compound, the Inhibition in the assay filed under Homo sapiens worked out at 100%. For the same compound, the inhibition entry in [3] and in [5] was “inactive” each time. Further, the IC50 is > 100000 nM in [4], 1.6 nM at Integrin alpha-V/beta-3 [2] and 40 nM on Integrin alpha-V/beta-3 [6]. Consider `O=C(O)CC1c2ccccc2C(=O)N(CC(=O)NCCCCNc2nc3ccccc3[nH]2)c2ccccc21` (centres undefined), for which the IC50 at Integrin alpha-V/beta-3 [2] worked out at 14.9 nM. On the same count and under the same terms, the result for `O=C(O)CC1c2ccccc2C(=O)N(CC(=O)Nc2ccc(-c3nc4ccccc4[nH]3)cc2)c2ccccc21` (centres undefined) reads 5000 nM; that for `O=C(O)CC1c2ccccc2C(=O)N(CC(=O)NCc2nc(-c3nc4ccccc4[nH]3)cs2)c2ccccc21` (centres undefined), 1000 nM; that for `O=C(O)CC1c2ccccc2C(=O)N(CC(=O)NCc2cc(-c3nc4ncccc4[nH]3)cs2)c2ccccc21` (centres undefined), 500 nM.

For `O=C(O)CC1c2ccccc2C(=O)N(CC(=O)NCc2ccc(-c3nc4ccccc4[nH]3)s2)c2ccccc21` (centres undefined), the IC50 at Integrin alpha-V/beta-3 [2] came to 500 nM. On the same count and under the same terms, the result for `O=C(O)CC1c2ccccc2C(=O)N(CC(=O)NCCc2ccc(-c3nc4ccccc4[nH]3)cc2)c2ccccc21` (centres undefined) reads 380 nM. The same measure, in the same setting: the result for `Cc1cc2nc(-c3ccc(CNC(=O)CN4C(=O)c5ccccc5C(CC(=O)O)c5ccccc54)cc3)[nH]c2cc1C` (centres undefined) reads 220 nM. As to `O=C(O)CC1c2ccccc2C(=O)N(CCOCc2ccc(NC(=O)NCc3ccccc3)cc2)c2ccccc21` (centres undefined), on Integrin alpha-V/beta-3 [1], the IC50 entry is “Not Active”. On to `O=C(O)CC1c2ccccc2C(=O)N(CC(=O)NCc2ccc(Nc3nc4ccccc4[nH]3)cc2)c2ccccc21` (centres undefined), for which the Inhibition in the assay filed under Homo sapiens came to 67%. The IC50 against Integrin alpha-V/beta-3 [7] is 100 nM; in assay [4] it was > 100000 nM; on Integrin alpha-V/beta-3 [2], 7 nM and 7.3 nM. Also, the inhibition entry in [3] and in [5] was “inactive” throughout. Turning to `O=C(O)CC1c2ccccc2C(=O)N(CC(=O)NCc2cccc(-c3nc4ccccc4[nH]3)c2)c2ccccc21` (centres undefined), on Integrin alpha-V/beta-3 [2], the concentration for half-maximal inhibition (IC50) amounted to 10000 nM. With `O=C(O)CC1c2ccccc2C(=O)N(CCNCc2ccc(NC(=O)NCc3ccccc3)cc2)c2ccccc21` (centres undefined), the IC50 entry on Integrin alpha-V/beta-3 [1] is on record as “Not Active”. `O=C(O)CC1c2ccccc2C(=O)N(CC(=O)NCc2cc(-c3nc4ccccc4[nH]3)cs2)c2ccccc21` (centres undefined) returned a half-maximal inhibitory concentration (IC50) at Integrin alpha-V/beta-3 [2] of 100 nM.

On Integrin alpha-V/beta-3 [2], `O=C(O)CC1c2ccccc2C(=O)N(CC(=O)NCc2ccc(Nc3ccccn3)cc2)c2ccccc21` (centres undefined) gave an IC50 of 5000 nM.

Turning to `O=C(O)CC1c2ccccc2C(=O)N(CC(=O)NCc2ccc(NC(=O)OCc3ccccc3)cc2)c2ccccc21` (centres undefined), the IC50 on Integrin alpha-V/beta-3 [2] turned out to be 10000 nM.

For `O=C(O)CC1c2ccccc2C(=O)N(CC(=O)NCCCCCNc2nc3ccccc3[nH]2)c2ccccc21` (centres undefined), the IC50 on Integrin alpha-V/beta-3 [2] was found to be 12.9 nM.

`NC(N)=Nc1ccc(CNC(=O)CN2C(=O)c3ccccc3C(CC(=O)O)c3ccccc32)cc1` (centres undefined): the IC50 at Integrin alpha-V/beta-3 [2] is 84 nM. Consider `O=C(O)CC1c2ccccc2C(=O)N(CC(=O)NCc2ccc(-c3nc4ccccc4[nH]3)cc2)c2ccccc21` (centres undefined), for which the IC50 on Integrin alpha-V/beta-3 [2] was determined as 74 nM. The same measure, in the same setting: the result for `N=C(N)c1csc(CNC(=O)CN2C(=O)c3ccccc3C(CC(=O)O)c3ccccc32)c1` (centres undefined) reads 1000 nM. Still for that read-out and setting: the result for `O=C(O)CC1c2ccccc2C(=O)N(CCCCc2ccc(NC(=O)NCc3ccccc3)cc2)c2ccccc21` (centres undefined) reads 10000 nM; that for `O=C(O)CC1c2ccccc2C(=O)N(CC(=O)NCc2ccc(OC(=O)NCc3ccccc3)cc2)c2ccccc21` (centres undefined), 10000 nM; that for `O=C(O)CC1c2ccccc2C(=O)N(CC(=O)NCc2ccc(NC(=O)NCc3ccccc3)cc2)c2ccccc21` (centres undefined), 23 nM. Consider `O=C(O)CC1c2ccccc2C(=O)N(CC(=O)NCc2nc3ccccc3[nH]2)c2ccccc21` (centres undefined), for which the IC50 at Integrin alpha-V/beta-3 [2] worked out at 1000 nM. `O=C(O)CC1c2ccccc2C(=O)N(CC(=O)NCc2cc(CNc3ccccn3)cs2)c2ccccc21` (centres undefined) yielded an IC50 at Integrin alpha-V/beta-3 [2] of 220 nM. Same read-out and setting: the result for `O=C(O)CC1c2ccccc2C(=O)N(CC(=O)NCc2ccc(-c3nc4ccccc4[nH]3)nc2)c2ccccc21` (centres undefined) reads 200 nM.

As usually defined, the IC50 is the concentration needed to halve the response being measured. Broadly, the Papp is a coefficient for how fast a substance crosses the barrier. As usually defined, the Inhibition is the share of the control response that was lost under treatment. Low readings indicate little suppression, high ones strong suppression.

Values taken from ChEMBL document CHEMBL1135448, “Synthesis and SAR of N-substituted dibenzazepinone derivatives as novel potent and selective alpha(V)beta(3) antagonists” (Bioorg Med Chem Lett, 2002).
